According to PubChem BioAssay (NCI):
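Exposure lasted 48 hours, with cells grown in 96-well plates and compounds tested at five concentrations. GI50 is the concentration that inhibits growth by half. TGI: total growth inhibition.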 Where a SMILES comes first, the peptide text is derived from it. [ ]: non-standard residue; d: D form. Phe(4-Cl) = N[CH](Cc1ccc(Cl)cc1)C(=O)O

How the values were obtained:
Assay in all cases: NCI-60 cell line screen, 48 h
SN12C renal = test system: SN12C renal
EKVX NSCLC = test system: EKVX NSCLC
ACHN renal = test system: ACHN renal
HOP-92 NSCLC = test system: HOP-92 NSCLC
UO-31 renal = test system: UO-31 renal
SW-620 colon = test system: SW-620 colon
OVCAR-4 ovarian = test system: OVCAR-4 ovarian
SF-295 CNS = test system: SF-295 CNS
MCF7 breast = test system: MCF7 breast
NCI/ADR-RES ovarian = test system: NCI/ADR-RES ovarian

Structure (SMILES)	TGI (SN12C renal) [µM]	TGI (EKVX NSCLC) [µM]	TGI (ACHN renal) [µM]	TGI (HOP-92 NSCLC) [µM]	TGI (UO-31 renal) [µM]	TGI (SW-620 colon) [µM]	TGI (OVCAR-4 ovarian) [µM]	TGI (SF-295 CNS) [µM]	TGI (MCF7 breast) [µM]	TGI (NCI/ADR-RES ovarian) [µM]	GI50 (MCF7 breast) [µM]	GI50 (SN12C renal) [µM]	GI50 (EKVX NSCLC) [µM]	GI50 (ACHN renal) [µM]	GI50 (SF-295 CNS) [µM]	GI50 (NCI/ADR-RES ovarian) [µM]	GI50 (UO-31 renal) [µM]	GI50 (SW-620 colon) [µM]	GI50 (OVCAR-4 ovarian) [µM]	GI50 (HOP-92 NSCLC) [µM]
CN(C)P(=O)(/C(N)=N/Nc1ccc([N+](=O)[O-])cc1)N(C)C	> 100	> 100	> 100	> 100	> 100	> 100	> 100													
CC(O)C(NC(=O)C(Cc1ccccc1)NC(=O)C(NC(=O)C(CCCCN)NC(=O)C(Cc1c[nH]c2ccccc12)NC(=O)C(Cc1ccc(O)cc1)NC(=O)C(Cc1ccc(Cl)cc1)NC(=O)C(N)Cc1ccccc1)C(C)O)C(N)=O (stereo not drawn) (H-F[Phe(4-Cl)]YWKTFT-NH2; configuration not given here)	> 100	32.2	40.9		37.5		58.7	21.3												
CC(C)N(C(=O)C12CC3CC(CC(C3)C1)C2)C(C)C	> 50	> 50	> 50	> 50	> 50	> 50	> 50	> 50												
CC(C)=CCC/C(=C/CC/C(C)=C/CCc1ccoc1)C(=O)O	> 100	> 100	> 100	> 100	> 100	> 100	> 100	> 100												
CN(C)CCNC(=O)c1cccc(C(=O)Nc2ccccc2)c1[N+](=O)[O-]	> 100		> 100		> 100	> 100		> 100	> 100	> 100										
Cc1ccccc1N(CCC#N)C1=NN(C(=O)CC(=O)Nc2ccccc2)C(c2ccccc2)C1 (stereo not drawn)	> 100	> 100	> 100	> 100	> 100	> 100	> 100	> 100												
COc1cc(NC(=O)c2cc(O)c(CC=C(C)C)c(O)c2)cc2c1O[C@]1(C)CC[C@@H](O)C(C)(C)[C@H]1C2	36.6	48.2	48.7		8.18	13.8	> 100	3.85	15.4	> 100	2.1	8.83	5.96	5.38	1.25	37	2.42	3.09	7.52	
COC(=O)C1=NC(=S)NC(c2ccccc2)C1c1nc2ccccc2s1 (stereo not drawn)	> 100	> 100	> 100	> 100	> 100	> 100	> 100	> 100												
CCCCCCCCCCCCCC1CCC(CC)N1 (stereo not drawn)	23.4	31.4	17.4	31.3	27.4	29.6	31.2	32.6												
COc1ccc(-c2cn3ccsc3n2)cc1	> 100	> 100	> 100	> 100	> 100	34.9	> 100	> 100												
N.N.N.N.N.O=C([O-])c1nn[n-]n1.[Cl-].[Co+3]	> 100	> 100	> 100	> 100	> 100	> 100	> 100	> 100				> 100	> 100	> 100	> 100		> 100	> 100	> 100	> 100
COc1ccc2c(c1)C=C([N+](=O)[O-])C(C1OC(C)(C)OC1C1COC(C)(C)O1)O2 (stereo not drawn)	19.7	21.2	6.53	37.8	26.3	6.81	21.3	22.2	9.12											
CCOC(=O)NC(=O)c1cn(CCOCCOC(=O)NCCCCCCNC(=O)OCCOCCn2cc(C(=O)NC(=O)OCC)c(=O)[nH]c2=O)c(=O)[nH]c1=O	> 100	> 100	> 100	> 100	> 100	> 100	> 100	> 100												
CCOC1=NC(=O)CC(c2ccccc2)S1 (stereo not drawn)	> 100	> 100	> 100	> 100	> 100	> 100	> 100	> 100												
CC1=C(C)CC2(CCCCC2=O)S(=O)C1 (stereo not drawn)	> 100	> 100	> 100	> 100	> 100	> 100	> 100	> 100												
Cn1cc(C(=O)c2ccccc2)ccc1=O	> 100	> 100	> 100	> 100	> 100	> 100	> 100	> 100												
